ChEMBL document CHEMBL5465560, “Selectivity Literature for EUbOPEN Chemogenomic Library” (2024)

Key:
[1] = target: Dual specificity tyrosine-phosphorylation-regulated kinase 1A (Homo sapiens, UniProt Q13627); test: Selectivity interaction (Kinase screening (Nanosyn)) EUB0000604a DYRK1A
[2] = target: T1, Uncharacterized serine/threonine-protein kinase SBK3 (Homo sapiens) (UniProt P0C264); test: Selectivity interaction (KinomeScan (DiscoverX)) EUB0001049a SBK3; conditions: at 1 µM
T1 sequence (whole entry): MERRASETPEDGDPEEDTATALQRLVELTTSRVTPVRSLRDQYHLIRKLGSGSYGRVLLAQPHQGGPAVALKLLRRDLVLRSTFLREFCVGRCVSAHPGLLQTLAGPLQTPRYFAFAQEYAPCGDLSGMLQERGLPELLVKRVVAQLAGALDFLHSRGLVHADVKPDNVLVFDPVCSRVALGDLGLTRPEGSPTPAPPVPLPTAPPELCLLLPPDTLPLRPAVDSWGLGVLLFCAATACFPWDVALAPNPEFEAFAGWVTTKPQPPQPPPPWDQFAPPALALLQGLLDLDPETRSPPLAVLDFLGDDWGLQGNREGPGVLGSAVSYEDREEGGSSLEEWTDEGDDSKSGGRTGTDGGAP

SRSF protein kinase 1 = SRSF protein kinase 1 (Homo sapiens, UniProt Q96SB4); test: Selectivity interaction (Kinase panel (Invitrogen)) EUB0000639a SRPK1; conditions: at 200 nM
[3] = target: T2, Serine/threonine-protein kinase Sgk3 (Homo sapiens) (UniProt Q96BR1); test: Selectivity interaction (ActivX KiNativ screen (kinase selectivity in THP-1 cell lysates)) EUB0000639a SGK3; format: subcellular; conditions: lysate, at 1 µM
T2 sequence (whole entry): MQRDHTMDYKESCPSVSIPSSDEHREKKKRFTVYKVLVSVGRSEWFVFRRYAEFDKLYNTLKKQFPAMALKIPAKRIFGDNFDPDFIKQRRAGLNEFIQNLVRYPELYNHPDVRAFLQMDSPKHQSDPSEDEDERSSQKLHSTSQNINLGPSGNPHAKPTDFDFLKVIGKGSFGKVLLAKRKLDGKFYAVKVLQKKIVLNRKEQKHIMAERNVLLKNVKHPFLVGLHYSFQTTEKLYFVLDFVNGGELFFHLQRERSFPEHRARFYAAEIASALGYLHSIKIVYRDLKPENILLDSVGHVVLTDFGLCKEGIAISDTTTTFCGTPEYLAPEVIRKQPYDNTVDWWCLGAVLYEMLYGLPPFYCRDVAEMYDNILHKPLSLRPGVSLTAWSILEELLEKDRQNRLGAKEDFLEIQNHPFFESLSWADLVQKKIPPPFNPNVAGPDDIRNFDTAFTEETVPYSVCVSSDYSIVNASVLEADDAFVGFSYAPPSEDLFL

[4] = target: Death-associated protein kinase 3 (Homo sapiens) (UniProt O43293); test: Selectivity interaction (Kinase panel (Invitrogen)) EUB0000639a DAPK3; conditions: at 200 nM
[5] = target: T3, Serine/threonine-protein kinase 4 (Homo sapiens) (UniProt Q13043); test: Selectivity interaction (Kinase panel (Z-LYTE Assay)) EUB0001632a STK4; conditions: at 10 µM
T3 sequence (whole entry): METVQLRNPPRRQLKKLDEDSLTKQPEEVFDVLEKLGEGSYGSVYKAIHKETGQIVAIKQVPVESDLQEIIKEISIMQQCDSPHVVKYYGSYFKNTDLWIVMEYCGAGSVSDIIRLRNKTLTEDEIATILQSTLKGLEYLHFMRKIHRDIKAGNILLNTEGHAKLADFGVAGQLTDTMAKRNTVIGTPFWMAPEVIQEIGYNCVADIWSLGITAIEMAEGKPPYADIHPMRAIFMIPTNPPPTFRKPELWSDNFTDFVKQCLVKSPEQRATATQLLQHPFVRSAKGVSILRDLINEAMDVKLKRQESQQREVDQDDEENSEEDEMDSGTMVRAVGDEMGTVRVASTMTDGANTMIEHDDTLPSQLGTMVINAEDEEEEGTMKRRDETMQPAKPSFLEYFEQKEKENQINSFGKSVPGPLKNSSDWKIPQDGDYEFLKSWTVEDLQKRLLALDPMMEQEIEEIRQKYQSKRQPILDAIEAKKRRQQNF

[6] = target: T4, Serine/threonine-protein kinase MAK (Homo sapiens) (UniProt P20794); test: Selectivity interaction (KinomeScan (DiscoverX)) EUB0001079a MAK; conditions: at 1 µM
T4 sequence (whole entry): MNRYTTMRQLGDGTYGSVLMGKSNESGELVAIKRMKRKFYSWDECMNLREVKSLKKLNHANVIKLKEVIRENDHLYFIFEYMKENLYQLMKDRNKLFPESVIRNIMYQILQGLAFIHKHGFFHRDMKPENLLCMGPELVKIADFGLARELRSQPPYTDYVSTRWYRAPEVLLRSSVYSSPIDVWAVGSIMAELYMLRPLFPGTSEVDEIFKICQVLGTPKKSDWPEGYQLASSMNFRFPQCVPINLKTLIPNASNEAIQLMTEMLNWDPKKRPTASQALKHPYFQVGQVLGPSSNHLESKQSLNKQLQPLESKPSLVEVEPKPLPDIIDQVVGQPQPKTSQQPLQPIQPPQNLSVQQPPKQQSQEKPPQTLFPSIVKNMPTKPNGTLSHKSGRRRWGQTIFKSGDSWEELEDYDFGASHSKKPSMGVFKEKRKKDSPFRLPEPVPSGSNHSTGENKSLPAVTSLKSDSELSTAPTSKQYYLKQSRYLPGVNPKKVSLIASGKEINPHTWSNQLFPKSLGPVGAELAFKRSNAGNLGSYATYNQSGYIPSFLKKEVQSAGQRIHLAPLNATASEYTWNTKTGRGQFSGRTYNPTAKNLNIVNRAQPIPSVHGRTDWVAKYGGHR

[7] = target: Calcium/calmodulin-dependent protein kinase type II subunit delta (Homo sapiens) (UniProt Q13557); test: Selectivity interaction (KinomeScan (DiscoverX)) EUB0000045b CAMK2D
[8] = target: Serine/threonine-protein kinase 32B (Homo sapiens) (UniProt Q9NY57); test: Selectivity interaction (KinomeScan (DiscoverX)) EUB0000607a STK32B; conditions: at 10 µM
Nav1.5 (SCN5A) = Nav1.5 (SCN5A) (Homo sapiens, UniProt Q14524); test: Selectivity interaction (Panel of kinases, GPCRs, ion channels and transporters (enzymatic assay)) EUB0000223bCl SCN5A
Nav1.5 (SCN5A), sequence (Q14524 whole entry): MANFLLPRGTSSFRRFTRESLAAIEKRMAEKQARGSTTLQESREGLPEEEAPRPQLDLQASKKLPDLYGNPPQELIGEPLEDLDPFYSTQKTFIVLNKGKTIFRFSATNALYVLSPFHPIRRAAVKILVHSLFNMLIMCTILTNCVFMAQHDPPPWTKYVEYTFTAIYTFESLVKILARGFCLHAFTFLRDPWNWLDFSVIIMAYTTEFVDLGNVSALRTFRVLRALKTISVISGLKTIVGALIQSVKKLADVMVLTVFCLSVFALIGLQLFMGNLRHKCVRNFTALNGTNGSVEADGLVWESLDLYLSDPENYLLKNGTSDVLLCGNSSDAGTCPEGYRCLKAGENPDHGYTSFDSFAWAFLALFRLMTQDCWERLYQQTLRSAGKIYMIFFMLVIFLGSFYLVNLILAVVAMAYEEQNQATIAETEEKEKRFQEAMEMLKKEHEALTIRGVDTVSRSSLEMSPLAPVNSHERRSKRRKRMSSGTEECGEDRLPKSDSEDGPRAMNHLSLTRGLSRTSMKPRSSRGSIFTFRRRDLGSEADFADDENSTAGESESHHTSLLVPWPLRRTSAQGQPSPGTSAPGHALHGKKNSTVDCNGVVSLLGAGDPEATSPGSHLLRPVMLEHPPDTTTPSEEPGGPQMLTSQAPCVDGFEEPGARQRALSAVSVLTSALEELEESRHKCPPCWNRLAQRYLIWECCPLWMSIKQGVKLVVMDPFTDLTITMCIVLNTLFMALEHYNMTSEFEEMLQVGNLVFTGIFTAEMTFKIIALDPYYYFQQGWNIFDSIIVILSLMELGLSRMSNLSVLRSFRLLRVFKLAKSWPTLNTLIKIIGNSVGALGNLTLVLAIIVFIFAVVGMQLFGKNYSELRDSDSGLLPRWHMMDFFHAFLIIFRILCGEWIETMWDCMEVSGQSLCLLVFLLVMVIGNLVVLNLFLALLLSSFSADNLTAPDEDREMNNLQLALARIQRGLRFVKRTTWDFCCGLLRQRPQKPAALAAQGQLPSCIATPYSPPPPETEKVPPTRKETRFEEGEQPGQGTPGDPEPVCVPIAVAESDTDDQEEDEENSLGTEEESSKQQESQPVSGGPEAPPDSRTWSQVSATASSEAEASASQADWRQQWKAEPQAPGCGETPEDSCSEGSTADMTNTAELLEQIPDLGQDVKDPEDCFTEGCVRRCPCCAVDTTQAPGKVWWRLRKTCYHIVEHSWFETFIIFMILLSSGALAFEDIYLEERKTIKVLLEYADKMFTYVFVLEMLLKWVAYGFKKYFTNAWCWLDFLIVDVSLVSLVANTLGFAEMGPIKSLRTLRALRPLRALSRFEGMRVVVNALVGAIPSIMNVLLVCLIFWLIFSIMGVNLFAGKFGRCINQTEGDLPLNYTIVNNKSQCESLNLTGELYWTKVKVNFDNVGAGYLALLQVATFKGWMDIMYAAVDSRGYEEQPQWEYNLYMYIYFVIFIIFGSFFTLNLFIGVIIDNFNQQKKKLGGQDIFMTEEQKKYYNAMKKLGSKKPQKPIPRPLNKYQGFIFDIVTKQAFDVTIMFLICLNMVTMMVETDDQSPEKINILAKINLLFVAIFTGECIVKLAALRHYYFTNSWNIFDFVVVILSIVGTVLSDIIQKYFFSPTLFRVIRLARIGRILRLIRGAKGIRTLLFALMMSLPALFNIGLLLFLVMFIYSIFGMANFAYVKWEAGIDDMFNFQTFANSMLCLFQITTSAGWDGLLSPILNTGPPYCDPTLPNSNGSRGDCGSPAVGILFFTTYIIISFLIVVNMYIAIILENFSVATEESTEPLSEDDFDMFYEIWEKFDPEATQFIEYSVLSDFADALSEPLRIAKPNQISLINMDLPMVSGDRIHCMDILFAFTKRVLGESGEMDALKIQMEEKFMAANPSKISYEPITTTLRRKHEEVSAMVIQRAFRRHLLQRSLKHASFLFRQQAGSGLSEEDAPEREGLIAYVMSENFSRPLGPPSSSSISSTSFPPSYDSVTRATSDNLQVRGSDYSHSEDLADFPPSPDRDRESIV

Calcium/calmodulin-dependent protein kinase type II subunit delta (Homo sapiens), sequence (Q13557 whole entry): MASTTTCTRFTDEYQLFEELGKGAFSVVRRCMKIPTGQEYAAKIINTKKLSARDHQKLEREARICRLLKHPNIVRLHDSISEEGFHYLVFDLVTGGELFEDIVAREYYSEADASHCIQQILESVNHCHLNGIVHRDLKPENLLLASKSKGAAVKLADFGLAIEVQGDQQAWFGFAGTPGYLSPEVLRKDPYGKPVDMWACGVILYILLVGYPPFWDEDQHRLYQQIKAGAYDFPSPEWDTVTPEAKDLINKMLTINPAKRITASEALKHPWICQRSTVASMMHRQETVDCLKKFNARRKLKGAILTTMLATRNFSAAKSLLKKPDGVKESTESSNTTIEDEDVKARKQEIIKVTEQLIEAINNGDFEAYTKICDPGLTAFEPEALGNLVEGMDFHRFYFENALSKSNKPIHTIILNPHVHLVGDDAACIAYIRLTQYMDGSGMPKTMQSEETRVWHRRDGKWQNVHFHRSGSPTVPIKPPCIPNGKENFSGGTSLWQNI
Death-associated protein kinase 3 (Homo sapiens), sequence (O43293 whole entry, looked up): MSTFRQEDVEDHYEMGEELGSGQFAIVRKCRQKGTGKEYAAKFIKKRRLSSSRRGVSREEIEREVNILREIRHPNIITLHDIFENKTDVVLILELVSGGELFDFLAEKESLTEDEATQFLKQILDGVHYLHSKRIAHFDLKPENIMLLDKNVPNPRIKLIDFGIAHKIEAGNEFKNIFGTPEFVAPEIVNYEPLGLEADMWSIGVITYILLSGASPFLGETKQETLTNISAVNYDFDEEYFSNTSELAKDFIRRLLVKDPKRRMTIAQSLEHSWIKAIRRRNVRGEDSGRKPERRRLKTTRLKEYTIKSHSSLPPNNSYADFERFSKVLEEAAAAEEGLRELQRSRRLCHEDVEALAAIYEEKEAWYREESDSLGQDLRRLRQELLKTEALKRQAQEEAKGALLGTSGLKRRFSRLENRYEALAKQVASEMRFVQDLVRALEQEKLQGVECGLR
SRSF protein kinase 1, sequence (Q96SB4 whole entry): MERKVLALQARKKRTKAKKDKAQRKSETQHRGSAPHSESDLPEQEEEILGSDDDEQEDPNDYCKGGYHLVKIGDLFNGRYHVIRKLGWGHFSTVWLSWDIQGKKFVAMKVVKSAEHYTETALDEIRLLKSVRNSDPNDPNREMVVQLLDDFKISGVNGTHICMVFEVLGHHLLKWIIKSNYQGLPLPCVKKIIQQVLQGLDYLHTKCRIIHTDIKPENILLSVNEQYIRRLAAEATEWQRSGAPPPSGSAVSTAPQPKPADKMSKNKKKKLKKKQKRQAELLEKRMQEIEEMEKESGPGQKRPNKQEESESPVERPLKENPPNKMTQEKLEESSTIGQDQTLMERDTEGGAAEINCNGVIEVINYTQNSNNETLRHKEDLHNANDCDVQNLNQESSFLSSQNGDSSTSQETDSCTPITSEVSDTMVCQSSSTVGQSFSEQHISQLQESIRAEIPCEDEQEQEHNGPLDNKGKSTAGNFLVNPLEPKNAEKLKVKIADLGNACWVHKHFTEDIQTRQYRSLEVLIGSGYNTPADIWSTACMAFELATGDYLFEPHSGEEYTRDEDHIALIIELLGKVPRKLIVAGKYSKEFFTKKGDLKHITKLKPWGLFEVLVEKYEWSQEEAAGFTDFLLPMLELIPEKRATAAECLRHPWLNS
Serine/threonine-protein kinase 32B (Homo sapiens), sequence (Q9NY57 whole entry): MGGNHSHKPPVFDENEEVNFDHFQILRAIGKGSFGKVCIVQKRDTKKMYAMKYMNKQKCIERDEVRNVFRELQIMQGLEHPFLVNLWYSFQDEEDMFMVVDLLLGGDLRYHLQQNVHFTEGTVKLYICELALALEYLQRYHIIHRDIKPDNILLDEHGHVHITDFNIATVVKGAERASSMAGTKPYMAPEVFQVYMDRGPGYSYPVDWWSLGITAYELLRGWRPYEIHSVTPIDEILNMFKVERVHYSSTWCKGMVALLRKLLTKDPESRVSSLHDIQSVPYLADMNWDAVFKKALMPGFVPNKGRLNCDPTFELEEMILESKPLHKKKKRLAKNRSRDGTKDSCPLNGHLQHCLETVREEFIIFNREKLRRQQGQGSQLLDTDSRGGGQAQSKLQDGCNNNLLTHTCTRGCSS

Cc1cnc(Nc2ccc(F)cc2Cl)nc1-c1c[nH]c(C(=O)N[C@H](CO)c2cccc(Cl)c2)c1
% of inhibition [1]: 3%

COc1cc(Nc2nc(C)cc(-c3cnn4nc(OC)ccc34)n2)cc(C(F)(F)F)c1
% of control [2]: 87%

CC[C@@H]1[C@H](F)C(=O)N[C@@H]1COc1nccc2cc(C(N)=O)c(OC)cc12 [ZIMLOVISERTIB]
% of inhibition (SRSF protein kinase 1): 0.109%
% of inhibition [3]: -1%
% of inhibition [4]: 20.3%

Cn1cc(-n2cnc3c(NCc4nc5cc(Cl)c(Cl)cc5[nH]4)nc(N4CCOCC4)nc32)cn1
% of control [5]: -9.12%

Nc1cnc(N2CCc3cc(S(=O)(=O)Nc4c(F)cc(Cl)cc4F)cc(N4CCCC4=O)c32)nc1 [TP-020n]
% of control [6]: 96%

C=CC(=O)Nc1cc(-n2c(=O)ccc3cnc4ccc(-c5ccc(NS(C)(=O)=O)cc5)cc4c32)ccc1C
% of control ([7]; at 1 µM): 100%
% of control ([7]; at 10 µM): 92%

CNC(=O)Nc1ccc(-c2nc(N3CC4CCC(C3)O4)c3cnn(C4CCC5(CC4)OCCO5)c3n2)cc1
% of control [8]: 86%

COc1cc(C(=O)N2CC[C@@H](O)[C@@H](N)C2)cc2nc(-c3cc4ccccc4n3CC3CC3)n(C)c12
XC50 (Nav1.5 (SCN5A)): 39.8 µM
